Measurements published in article PMC7037447, “Syntheses of L-Rhamnose-Linked Amino Glycerolipids and Their Cytotoxic Activities against Human Cancer Cells” (Molecules, 2020).

What was measured:
MDA-MB-231 = experiment: MTS cell viability assay, 48 h; type: cell-based, human; details: Homo sapiens; MDA-MB-231, 48 h, MTS; concentration decreasing cell viability by 50% relative to untreated control; read-out: CC50
Experimental: […] […] This compound carries a primary amino group at the sn-3 position of the glycerolipid and L-rhamno sugar at the sn-2 position via an α-rhamnosidic linkage.
(§1) The cell lines were cultured from frozen stocks originally obtained from ATCC (Manassas, VA, USA). MDA-MB-231, JIMT-1, DU145, MDA-MB-468, Hs578t and MDA-MB-453 were grown in DMEM medium supplemented with 10% FBS. BT-474 cells were grown in DMEM/F12 medium supplemented with 10% FBS. MiaPaCa2 was cultured in DMEM supplemented with 10% FBS and 2.5% horse serum. All the media contained penicillin/streptomycin. U-251 and U-87 in Eagle MEM supplemented by 10% FBS, 1% Non-essential amino acids, 1 mM sodium pyruvate and 2 mM glutamine. BT-549 was cultured in RPMI 1640 medium supplemented with 10% FBS.
The effects of the GAELs on the viability of the epithelial cancer cell lines were determined as previously described. Briefly, equal numbers of the cells were dispersed into 96-well plates. […] MTS reagent [3-(4,5-dimethylthiazol-2-yl)-5-(3-carboxymethoxyphenyl)-2-(4-sulfophenyl)-2H-tetrazolium, inner salt; Promega, Madison, WI, USA] (20% v/v) was subsequently added and the plates were incubated for 1–4 h in a CO2 incubator followed by measurement of the medium at OD490 with a plate reader (Molecular Devices).

JIMT-1 [1] = experiment: MTS cell viability assay, 48 h; type: cell-based, human; details: Homo sapiens; JIMT-1, 48 h, MTS; read-out: CC50
Experimental: (§2) The cells were incubated with increasing concentrations of the compounds (0–30 µM) for 48 h followed by assessment of cell viability using the MTS assay. […] This compound carries a primary amino group at the sn-3 position of the glycerolipid and L-rhamno sugar at the sn-2 position via an α-rhamnosidic linkage.
as §1
(§3) The effects of the GAELs on the viability of the epithelial cancer cell lines were determined as previously described. Briefly, equal numbers of the cells were dispersed into 96-well plates. After 24 h, the cells were incubated with the compounds (0–30 µM) for 48 h. MTS reagent [3-(4,5-dimethylthiazol-2-yl)-5-(3-carboxymethoxyphenyl)-2-(4-sulfophenyl)-2H-tetrazolium, inner salt; Promega, Madison, WI, USA] (20% v/v) was subsequently added and the plates were incubated for 1–4 h in a CO2 incubator followed by measurement of the medium at OD490 with a plate reader (Molecular Devices). Wells with media but no cells were treated in similar fashion and the values utilized as blank.

DU-145 [2] = experiment: MTS cell viability assay, 48 h; type: cell-based, human; details: Homo sapiens; DU-145, 48 h, MTS; read-out: CC50
Experimental: as §2, §1
as §3, with “Devices).” for “Devices). Wells with media but no cells were treated in similar fashion and the values utilized as blank.”

MiaPaCa2 = experiment: MTS cell viability assay, 48 h; type: cell-based, human; details: Homo sapiens, MIA PaCa-2; MiaPaCa2, 48 h, MTS; read-out: CC50
Experimental: as §2, §1
as §3, with “Devices).” for “Devices). Wells with media but no cells were treated in similar fashion and the values utilized as blank.”

PC-3 = experiment: MTS cell viability assay, 48 h; type: cell-based, human; details: Homo sapiens; PC-3, 48 h, MTS; read-out: CC50
Experimental: as §2, §3

[3] = tested on: BT549, MDA-MB-453, MDA-MB-468, and Hs578t (triple negative breast cancer lines); experiment: MTS cell viability assay, 48 h, triple negative breast cancer lines; type: cell-based, human; details: with the exception of MDA-MB-453
Experimental: Concentrations of compound 3 between 6–15 µM were sufficient to kill all the triple negative cell lines with the exception of MDA-MB-453 where viability was inhibited by 60% at the highest concentration tested. 30 µM of 3 was required for complete loss of viability of the hormone sensitive breast cancer BT474 cell line.
as §1
The effects of the GAELs on the viability of the epithelial cancer cell lines were determined as previously described. Briefly, equal numbers of the cells were dispersed into 96-well plates. After 24 h, the cells were incubated with the compounds (0–30 µM) for 48 h. […] (20% v/v) was subsequently added and the plates were incubated for 1–4 h in a CO2 incubator followed by measurement of the medium at OD490 with a plate reader (Molecular Devices). […]

DU-145 [4] = details: DU-145, absence or presence of 40 µM QVD, 48 h
Experimental: (§4) One of the hallmark features of cytotoxic GAELs is their ability to kill cancer cells via an apoptosis-independent mechanism. We evaluated whether the mechanism of action of 3 was similar to other GAELs.
(§5) Equal numbers of JIMT-1, or DU145 cells were dispersed into 96-well plates, and after 4 h the cells were treated with pan-caspase inhibitor QVD-OPh (40 µM). After 20 h, the cells were incubated with the varying concentration of the compounds ([…]) for 48 h. At the end of the incubation, the MTS assay was used to assess cell viability as described above.
(§6) DU-145 or JIMT-1 cell lines were treated with increasing concentrations of 3 or Adriamycin in the presence or absence of 40 µM QVD. Four hours after plating, cells were treated with QVD. After 20 h, the cells were incubated with 0–15 µM 3 or 0–4 µM Adriamycin for 48 h. Cell viability relative to vehicle control was measured by MTS assay.

JIMT-1 [5] = details: JIMT-1, absence or presence of 40 µM QVD, 48 h
Experimental: as §4, §5, §6

DU-145 [6] = experiment: Cell membrane integrity, ethidium homodimer-1 (EthD-1) staining; type: cell-based; details: DU-145, 10 µM, 4–6 h
Experimental: (§7) After determining that the mechanism of cell death of compound 3 is independent of caspases-mediated apoptosis, we evaluated if cell death was due to membrane disruption or lysis using the cell impermeant ethidium homodimer-1 (EthD-1) dye that emits red fluorescence upon binding to DNA [13, 14]. DU-145 and JIMT-1 were treated with compound 3 at 10 and 15 µM, respectively. After 4–6 h, the cells were treated with EthD-1 dye and monitored under fluorescence microscopy.
(§8) Equal numbers of JIMT-1 and DU145 cells were dispersed into 96-well plates. After 24 h the cells were incubated with varying concentration of compounds 3 or 4 (4–6 µM) for 5–6 h. Subsequently, 2 µM of the cell membrane impermeant dye, ethidium homodimer-1 (EthD-1 (Molecular Probes, Eugene, OR, USA) that emits red fluorescence upon binding to DNA was added and the cells analysed by fluorescence microscopy. EthD-1 staining was compared to negative controls with no treatment and positive control treated with 0.01% Triton X-100 for 10 min.
(§9) Figure 5 Evaluation of effect of compound 3 on cell membrane of DU-145 and JIMT-1 cell lines using cell impermeant ethidium homodimer-1 (EthD-1) dye that emits red fluorescence upon binding to DNA.

JIMT-1 [7] = experiment: as above; type: cell-based; details: JIMT-1, 15 µM, 4–6 h
Experimental: as §7, §8, §9

CCCCCCCCCCCCCCCCOCC(CN)OC1OC(C)C(O)C(O)C1O [Compound 3, 3-Amino-1-O-hexadecyloxy-2R-(O–α-L-rhamnopyranosyl)-sn-glycerol]
CC50 (MDA-MB-231): 4.8 µM | CC50 (JIMT-1 [1]): 5.5 µM | CC50 (DU-145 [2]): 8.2 µM | CC50 (MiaPaCa2): 8.5 µM | CC50 (PC-3): 11 µM | Concentrations sufficient to kill all the triple negative cell lines [3]: 6 to 15 µM | Effect of QVD on cytotoxicity (DU-145 [4]): no statistically significant differences | Effect of QVD on cytotoxicity (JIMT-1 [5]): no statistically significant differences | Cell membrane lysis (EthD-1 staining) (DU-145 [6]): no significant cell membrane lysis | Cell membrane lysis (EthD-1 staining) (JIMT-1 [7]): no significant cell membrane lysis
